For data set [1] the following is noted: cited from earlier work.
For data set [2] the following is noted: single oral dose of 5 mg delayed release tablet, fasting.
Experimental: Male and female study participants (in equal proportions) were enrolled in the study. A total of 54 normal, healthy, adult, human study participants were enrolled. All subjects either received test product (test) or reference product (reference) in each period according to the randomization schedule after ensuring maintenance of pre-dose restrictions (fasting for 10 hours prior to administration in sitting posture with 240±2 mL of drinking water at ambient temperature).
A washout period of 7 days was observed between both study periods. Study restrictions with respect to fluid intake and sitting positions were implemented during the restriction periods throughout the study in all periods.
Study participants were instructed not to break, cut, and chew the tablet (test or reference) but to swallow whole and were asked to take it with the specified quantity of water. Water intake was not allowed for 1 hour before dosing until 1 hour after dosing except while administration of the dose. After dosing, the participants remained in sitting position for first two hours. On dosing days, meals were given as per the following schedule. […]
The actual post-dose time of collection was used in the calculation of the above pharmacokinetic parameters. Drug concentrations that are below limit of quantification (BLQ) were treated as “zero” in all pharmacokinetic and statistical calculations. […]
For data set [3] the following is noted: cited from earlier work. The source holds these as a separate data set.

Where a name gives a salt, the structure may show the parent alone.

`COc1ccc2c3c1OC1C[C@@H](OC(=O)c4ccccc4)C=C[C@@]31CCN(C)C2` (stereo partly drawn) [benzgalantamine, (4aS,6R,8aS)-4a,5,9,10,11,12-hexahydro-3-methoxy-11-methyl-6H[1]benzofuro[3a,3,2-ef][2]benzazepin-6 benzoate gluconate salt]: the gastrointestinal adverse events entry in data set [1] (intranasal, twice daily dose of 11 mg) is “No gastrointestinal adverse events were observed”. In addition, the tolerability result in data set [1] (intranasal, up to a twice daily dose of 22 mg) is “well tolerated”. Also, in data set [1] (nasal administration, previous studies), the “administered compound not cleaved to galantamine, observed in blood” value is listed as “up to 10%”. Moreover, the “plasma benzgalantamine concentration profile after test tablet” value in data set [2] is “almost all values are zero or below limit of quantification (BLQ) at all times”.
For `COc1ccc2c3c1O[C@H]1C[C@@H](O)C=C[C@@]31CCN(C)C2` [galantamine, (4aS,6R,8aS)-3-Methoxy-11-methyl-4a,5,9,10,11,12-hexahydro-6H-benzofuro[3a,3,2-ef][2]benzazepin-6-ol], the “mean volume of distribution” value in data set [3] (human, in vivo) was 175 L. For the same compound, the tmax entry in data set [3] (oral galantamine) is given as “about 1 hour”.

Source of the values: US12208167B1 (priority 2024, dated 2025).
